Measured values from US8426398B2 (Emory University, priority 2009, dated 2013).
Blank lines part the entries; values can stand above or below the compound they belong to.

Columns and labels:
tubulin [1] = conditions: cited from earlier work
[2] = tested on: cells expressing green fluorescent protein (GFP)-tagged α-tubulin; conditions: 30 second time period; cited from earlier work
tubulin [3] = assay: assembly of tubulin subunits into microtubules in vitro (light scattering); assay type: biochemical; conditions: for effect on tubulin polymerization: 25 μM
Protocol: (§1) FIG. 5 is a picture showing the fluorescence quenching of tubulin by Targetin. Panel A, quenching of tubulin fluorescence emission by Targetin in a concentration-dependent manner (▪) control, 10 μM (●), 20 μM (▴), 30 μM (▾), 50 μM ( ? ), 75 μM ( ? ) and 100 μM (♦) Panel B, double-reciprocal plot for Targetin binding to tubulin. […] Equivalent amount of solvent DMSO was used as a negative control.
(§2) However, at a four-fold concentration of Targetin (100 μM), it inhibited the rate and extent of tubulin polymerization by ˜17% (FIG. 5C).

[4] = tested on: melanoma, glioblastoma, ovarian, breast carcinoma, and prostate cancer cells; conditions: many cancer cell types; cited from earlier work
[5] = oral 300 mg/kg body weight to 600 mg/kg; cited from earlier work
folate receptor = target: T1, folate receptor (Homo sapiens, UniProt P15328); conditions: KB-31 cells, 3H-folic acid; cited from earlier work
T1 construct: determined in cultured KB-31 cells (nasopharyngeal epidermal carcinoma cell line) overexpressing the folate receptor using ^3H-folic acid; endogenous in cells; host or cells: KB-31 cells
T1 sequence (P15328 25-234): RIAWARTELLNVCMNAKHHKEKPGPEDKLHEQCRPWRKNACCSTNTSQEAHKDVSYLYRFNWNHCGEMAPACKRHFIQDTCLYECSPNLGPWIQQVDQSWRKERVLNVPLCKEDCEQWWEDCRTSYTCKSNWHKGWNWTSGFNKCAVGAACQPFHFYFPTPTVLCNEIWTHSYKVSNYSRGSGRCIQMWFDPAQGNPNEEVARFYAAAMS

[6] = tested on: variety of cancer cell types with varying degrees of folate receptor expression; assay: sulforhodamine B cellular proliferation assay; assay type: cell-based; conditions: irrespective of folate receptor status
Protocol: Our next goal was to determine whether differences in folate receptor overexpression affected cytotoxicity in response to Targetin. To this end, the ability of Targetin to inhibit cellular proliferation of a variety of cancer cell types with varying degrees of folate receptor expression was evaluated using a sulforhodamine B assay to determine total protein content (FIG. 7).

[7] = tested on: FR-α overexpressing cancer cells (SK-OV3 human ovarian carcinoma cells, U87 glioblastoma cells); assay: cell viability using Trypan blue (adherent live cells), 48 hours; assay type: cell-based
Protocol: Live cells remain adherent and exclude Trypan blue (although a few late stage dying cells that remain adherent are Trypan blue-positive, and are not counted as live adherent). The numbers of adherent live cells are quantified in panels B and D respectively.
An equal number of two types of cells, (SK-OV3 human ovarian carcinoma cells and U87 glioblastoma cells) were plated in 15 tissue culture dishes. Plates were divided into five groups of triplicates.
FIGS. 8A & B show phase images and quantification of cell viability using Trypan blue in SK-OV3 cells. FIGS. 8C & D show parallel data for human glioblastoma U87 cells. Data for two other FR-α cell lines are similar (not shown).

tubulin [8] = assay: tubulin-fluorescence quenching titration; assay type: binding; conditions: 10-100 μM, compared with parent noscapine
Protocol: as §1, §2

[9] = tested on: porcine renal LLCPK-1 cells stably expressing GFP-tagged α-tubulin; assay: microtubule dynamics in living cells (plus ends of GFP-tagged α-tubulin MTs); assay type: cell-based; conditions: for Rate, Growing: individual microtubules in interphase cells
Protocol: FIG. 6 is a series of photographs showing how Targetin increases the pause-time of cellular MTs. A gallery of video frames, 6 seconds apart, of plus ends of several microtubules in control and Targetin treated cells.
To determine if Targetin affects MT dynamics in living cells, the life history of the plus ends of Targetin-treated cellular MTs was evaluated, resolvable individually at the cell periphery of porcine renal LLCPK-1 cells stably expressing green fluorescent protein (GFP)-tagged α-tubulin. These cells were treated either with Targetin in DMSO or DMSO alone. […] As expected in control cells, MTs alternated between phases of growth and shortening interrupted occasionally by a state of attenuated dynamic activity (pause), determined by noting the position of the plus ends over time. The control panels show different positions of MT plus ends in a 24 second time period (arrows represent fixed pixel position for reference).

Compound: COc1ccc2c(c1OC)C(=O)O[C@@H]2[C@H]1c2c(cc3c(c2OC)OCO3)CCN1C [Noscapine]
apparent stoichiometry of binding to tubulin (tubulin [1]): 0.95±0.02 noscapine molecule per tubulin dimer subunit | MT dynamics (position of plus ends) [2]: suppressed MT dynamics | effect on tubulin polymerization (tubulin [3]): did not inhibit tubulin polymerization | effect on cell cycle and cell death [4]: brief mitotic pause followed by extensive apoptosis | drug bioavailability on doubling the oral dose [5]: did not increase

Compound: Nc1nc(O)c2nc(CNc3ccc(C(=O)N[C@@H](CCC(=O)O)C(=O)O)cc3)cnc2n1 [folic acid]
in vitro binding affinity (folate receptor): 41 nmol/L

tubulin binding activity (quenching of tubulin fluorescence) (tubulin [8]): does retain the tubulin binding activity
Compound: Noscapine-folate [Targetin]
potency in inhibiting cellular proliferation relative to noscapine [6]: about 3 fold | effectiveness compared with noscapine (adherent live cells) ([7]; 10 μM Targetin vs 25 μM noscapine, FR-α overexpressing cell lines): significantly more effective than noscapine | effect of free folic acid on Targetin toxicity ([7]; 50 μM folic acid + 10 μM Targetin, FR-α overexpressing cancer cells): free folic acid mitigates the Targetin toxicity | effect on tubulin polymerization (tubulin [3]): did not inhibit tubulin polymerization | inhibition of the rate and extent of tubulin polymerization (tubulin [3]; 100 μM): ~17% | Average pause ([9]; Targetin 5 μM): 10.25 ± 1.25 s | Dynamicity ([9]; Targetin 5 μM): 4.52 ± 1.21 μm/min | Percent of total time, Attenuation ([9]; Targetin 5 μM): 32.5% | Percent of total time, Growing ([9]; Targetin 5 μM): 35.2% | Percent of total time, Shortening ([9]; Targetin 5 μM): 28.5% | Rate, Shortening ([9]; Targetin 5 μM): 11.78 ± 1.21 μm/min | Transition frequency, Catastrophe ([9]; Targetin 5 μM): 0.079 ± 0.07 s⁻¹ | Transition frequency, Rescue ([9]; Targetin 5 μM): 0.07 ± 0.012 s⁻¹ | Rate, Growing ([9]; Targetin 5 μM): 8.72 ± 1.32 μm/min | Average pause ([9]; Targetin 10 μM): 14.52 ± 2.36 s | Dynamicity ([9]; Targetin 10 μM): 2.75 ± 1.05 μm/min | Percent of total time, Attenuation ([9]; Targetin 10 μM): 44.8% | Percent of total time, Growing ([9]; Targetin 10 μM): 24.3% | Percent of total time, Shortening ([9]; Targetin 10 μM): 20.1% | Rate, Shortening ([9]; Targetin 10 μM): 9.92 ± 1.25 μm/min | Transition frequency, Catastrophe ([9]; Targetin 10 μM): 0.072 ± 0.05 s⁻¹ | Transition frequency, Rescue ([9]; Targetin 10 μM): 0.059 ± 0.019 s⁻¹ | Rate, Growing ([9]; Targetin 10 μM): 7.15 ± 0.56 μm/min | MT-binding and MT dynamics attenuating activity relative to noscapine ([9]; summary statement): ~3 fold
